# According to the C3SDB collision cross section collection:
# Settings: [M+H-H2O]+; instrument: TW; calibrated with polyalanine and drug standards
row,collision cross section (N2),SMILES
1,160.8 Å²,NS(=O)(=O)c1cc2c(cc1Cl)NCNS2(=O)=O [HYDROCHLOROTHIAZIDE]
2,199.6 Å²,CCC(C)(C)C(=O)O[C@H]1C[C@@H](C)C=C2C=C[C@H](C)[C@H](CC[C@@H]3C[C@@H](O)CC(=O)O3)[C@H]21 [SIMVASTATIN]
3,172.3 Å²,COc1ccc2c(c1)OC[C@@H](Cc1ccc(OC)c(OC)c1)[C@@H]2O [3-DESHYDROXYSAPPANOL TRIMETHYL ETHER]

row,SMILES,collision cross section (N2)
1,COc1cc([C@@H]2c3cc4c(cc3[C@H](O)[C@H]3COC(=O)[C@H]23)OCO4)cc(OC)c1OC [PODOFILOX],190.1 Å²
2,COc1cc([C@@H]2c3cc4c(cc3[C@H](O)[C@H]3COC(=O)[C@@H]23)OCO4)cc(OC)c1OC [PICROPODOPHYLLIN],190.9 Å²

# Same assay, conditions: [M+H]+; instrument: TW; calibrated with polyalanine and drug standards
row,collision cross section (N2),SMILES
1,175.2 Å²,COc1cc(OC)c(-c2c(OC)cc(OC)cc2OC)c(OC)c1 [DIFUCOL HEXAMETHYL ETHER]
2,152.1 Å²,"O=c1c(O)c(-c2ccccc2)oc2cc(O)ccc12 [3,7-DIHYDROXYFLAVONE]"
3,214.9 Å²,CC(=O)OCC(=O)[C@@]12OC3(CCCC3)O[C@@H]1C[C@H]1[C@@H]3CCC4=CC(=O)C=C[C@]4(C)[C@@]3(F)[C@@H](O)C[C@@]12C [AMCINONIDE]
4,159 Å²,CC(C)NCC(O)COc1ccc(CC(N)=O)cc1 (stereo not drawn) [ATENOLOL]
5,208.3 Å²,CC(C)CCC[C@@H](C)[C@H]1CC[C@H]2[C@@H]3C(=O)C=C4C[C@@H](O)CC[C@]4(C)[C@H]3CC[C@]12C [7-OXOCHOLESTEROL]
6,169.8 Å²,CN(C)CCCN1c2ccccc2Sc2ccc(Cl)cc21 [CHLORPROMAZINE]
7,130.2 Å²,O=c1oc2cc(O)ccc2s1 [TIOXOLONE]
8,166.4 Å²,COc1cc(S(C)=O)ccc1-c1nc2ncccc2[nH]1 (stereo not drawn) [SULMAZOLE]
9,174.3 Å²,O=C(CCNNC(=O)c1ccncc1)NCc1ccccc1 [NIALAMIDE]
10,206.1 Å²,COC(=O)C[C@H]1C(C)(C)C(=O)[C@@H]2CC3C4=CC(=O)O[C@@H](c5ccoc5)[C@]4(C)CCC3[C@@]1(C)C2=O (stereo partly drawn) [CARAPIN]
11,168.7 Å²,COC(=O)Nc1nc2ccc(C(=O)c3cccs3)cc2[nH]1 [NOCODAZOLE]
12,136.9 Å²,Cn1c(=O)c2c(ncn2C)n(C)c1=O [CAFFEINE]
13,160.7 Å²,O=c1c(O)c(-c2ccc(O)c(O)c2)oc2cc(O)ccc12 [FISETIN]
14,186.1 Å²,Cc1ccc(-c2cc(C(F)(F)F)nn2-c2ccc(S(N)(=O)=O)cc2)cc1 [CELECOXIB]
15,218.5 Å²,"CC[C@H](/C=C/[C@@H](C)[C@H]1CC[C@H]2[C@@H]3CCC4=CC(=O)CC[C@]4(C)[C@H]3CC[C@]12C)C(C)C [STIGMASTA-4,22-DIEN-3-ONE]"
16,183.4 Å²,CC1(C)CC2C1CC[C@]1(CBr)CCC3C(CC(=O)O)C(=O)O[C@@]32C1 (stereo partly drawn) [BROMO-3-HYDROXY-4-(SUCCIN-2-YL)-CARYOLANE gamma-LACTONE]

row,collision cross section (N2),SMILES
1,134.4 Å²,COc1ccc2c(C)cc(=O)oc2c1 [HYMECROMONE METHYL ETHER]
2,245.3 Å²,COc1ccc2cc1Oc1ccc(cc1)C[C@H]1c3cc(c(OC)cc3CCN1C)Oc1c(OC)c(OC)cc3c1[C@H](C2)N(C)CC3 [TETRANDRINE]
3,155.3 Å²,Nc1ccc(C(=O)NCC(=O)O)cc1 [AMINOHIPPURIC ACID]
4,175.7 Å²,OC(CCN1CCCCC1)(c1ccccc1)C1CC2C=CC1C2 (stereo not drawn) [BIPERIDEN]
5,180.2 Å²,O=C(O)CN(CCN(CC(=O)O)CC(=O)O)CCN(CC(=O)O)CC(=O)O [PENTETIC ACID]
6,129 Å²,CC(=O)c1c(O)cc(O)cc1O [PHLORACETOPHENONE]
7,178.5 Å²,CC1=C(C(=O)O)N2C(=O)[C@@H](NC(=O)[C@H](N)c3ccccc3)[C@H]2SC1 [CEPHALEXIN]
8,219.8 Å²,O=c1cc([C@H]2Oc3cc(O)cc(O)c3C[C@H]2O)cc2c([C@H]3Oc4cc(O)cc(O)c4C[C@H]3O)cc(O)c(O)c2c1O [THEAFLAVIN]
9,129.7 Å²,Nc1nc(=S)c2[nH]cnc2[nH]1 [THIOGUANINE]
10,141 Å²,OCCN1C[C@H](O)[C@@H](O)[C@H](O)[C@H]1CO [MIGLITOL]
11,187.7 Å²,C[C@H]1C[C@@H]2[C@H]([C@@H](O)C[C@@]3(C)[C@H]2CC[C@]3(O)C(=O)CO)[C@@]2(C)C=CC(=O)C=C12 [METHYLPREDNISOLONE]
12,143.9 Å²,O=C(Nc1ccccc1)c1ccccc1O [SALICYLANILIDE]
13,145.9 Å²,C[C@@H]1CC[C@H]2C(C)(C)[C@H]3C[C@@]12CC[C@@]3(C)O [CEDROL]
14,180.7 Å²,CCOC(=O)C1=C[C@@H](OC(CC)CC)[C@H](NC(C)=O)[C@@H](N)C1 [OSELTAMIVIR]
15,117.2 Å²,Nc1nccs1 [AMINOTHIAZOLE]
16,189.7 Å²,NCCCC[C@H](N[C@@H](CCc1ccccc1)C(=O)O)C(=O)N1CCC[C@H]1C(=O)O [LISINOPRIL]

row,SMILES,collision cross section (N2)
1,COc1cc([C@@H]2c3cc4c(cc3[C@H](O)[C@H]3COC(=O)[C@H]23)OCO4)cc(OC)c1OC [PODOFILOX],189.6 Å²
2,COc1cc(OC)c2c(c1)O[C@H](c1ccc(OC)c(OC)c1)[C@@H](O)C2 [CATECHIN TETRAMETHYLETHER],174.4 Å²
3,C[C@]12CC[C@H](O)C[C@H]1CC[C@@H]1[C@@H]2C[C@@H](O)[C@]2(C)[C@@H](C3=CC(=O)OC3)CC[C@]12O [DIGOXIGENIN],195.1 Å²
4,CN1CCN(C(=O)OC2c3nccnc3C(=O)N2c2ccc(Cl)cn2)CC1 (stereo not drawn) [ZOPICLONE],186.5 Å²
5,CC(=O)O[C@H]1C[C@@H](OC(C)=O)C(C)(C)C2CC(=O)[C@]3(C)C(CC[C@@]4(C)[C@H](c5ccoc5)OC(=O)[C@H]5O[C@]543)[C@]21C (stereo partly drawn) [7-DEACETOXY-7-OXOKHIVORIN],217.7 Å²
6,CC(C)c1c(CN(C)C(C)Cc2ccccc2)n(C)n(-c2ccccc2)c1=O (stereo not drawn) [FAMPROFAZONE],190.9 Å²
7,CCC(=O)O[C@H]1CC[C@H]2[C@@H]3CCC4=CC(=O)CC[C@]4(C)[C@H]3CC[C@]12C [TESTOSTERONE PROPIONATE],188.2 Å²
8,COc1cc2c(cc1OC)[C@@H]1C(=O)c3ccc4oc(C(C)C)cc4c3O[C@@H]1CO2 [ISOROTENONE],195.2 Å²

# Same assay, conditions: [M+Na]+; instrument: TW; calibrated with polyalanine and drug standards
row,SMILES,collision cross section (N2)
1,O=C1[C@H](CC[C@H](O)c2ccc(F)cc2)[C@@H](c2ccc(O)cc2)N1c1ccc(F)cc1 [EZETIMIBE],213.6 Å²
2,CCOC(=O)CC(SP(=S)(OC)OC)C(=O)OCC (stereo not drawn) [MALATHION],171.5 Å²
3,CC[C@@]1([C@@H]2O[C@@H]([C@H]3O[C@@](O)(CO)[C@H](C)C[C@@H]3C)C[C@@H]2C)CC[C@H]([C@]2(C)CC[C@]3(C[C@H](O)[C@@H](C)[C@@H]([C@@H](C)[C@@H](OC)[C@H](C)C(=O)O)O3)O2)O1 [MONENSIN],245.1 Å²
